16 molecules from ChEMBL document CHEMBL1201862, “PubChem BioAssay data set” (2004) can be followed below.

The target of test [1] is Beta-galactosidase (Escherichia coli, UniProt Q8VNN2). The test is described as follows: Dose response counterscreen for EBI2 assay utilizing the enzyme, b-galactosidase. The test is classed as functional.
Test [2] in a line: inhibitors of HIV Env-driven cell fusion, dose response, cherry-pick (AID 652057). The format is functional, cell-based.
Test [3] in a line: CEM21 lymphoblast cell cytotoxicity, dose response, cytotoxicity control for viral fusion inhibitor project, CellTiter-Glo luminescence, cherry-picked (AID 652042).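 Also: potency for signal decrease meaning cytotoxicity.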 The test is classed as functional, cell-based. (Cellular ATP, detected with luciferase, serves as a proxy for viable cell number.)
The nature of test [4]: miR-122 activators in hepatoma reporter cells, dose response, cell-based, Huh7 psiCHECK-miR122, Renilla luciferase, cherry-picked (AID 651956).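 Also: huh7 hepatoma cells stably carrying a psiCHECK-2 miR-122 sensor plasmid; renilla luciferase signal reporting endogenous miR-122 activity after 48 h compound exposure.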 The test is classed as functional.
Test [5] in a line: HEK293T cytotoxicity, dose response, cytotoxicity control for miR-122 modulator project, cell-based, activator set, cherry-pick (AID 720690).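 Also: HEK293T human cells scored for general mammalian cytotoxicity.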 The format is functional.
Test [6] addresses T1, Caspase-3 (Homo sapiens, UniProt P42574).
T1 sequence (P42574 whole entry): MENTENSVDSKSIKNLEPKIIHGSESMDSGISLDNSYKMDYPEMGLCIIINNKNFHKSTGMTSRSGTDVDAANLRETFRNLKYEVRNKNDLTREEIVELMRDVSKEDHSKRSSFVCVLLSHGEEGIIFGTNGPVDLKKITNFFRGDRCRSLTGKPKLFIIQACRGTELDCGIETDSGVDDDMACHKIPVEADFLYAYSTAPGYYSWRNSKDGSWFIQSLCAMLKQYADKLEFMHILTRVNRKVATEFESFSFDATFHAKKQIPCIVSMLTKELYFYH
The test is classed as functional.

Test [7] has as its target T2, Sentrin-specific protease 7 (Homo sapiens, UniProt Q9BQF6).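 Also: Luminescence-based dose-response confirmation of ultra-high-throughput screening hits, measuring inhibition of SENP7.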
T2 sequence (Q9BQF6 whole entry): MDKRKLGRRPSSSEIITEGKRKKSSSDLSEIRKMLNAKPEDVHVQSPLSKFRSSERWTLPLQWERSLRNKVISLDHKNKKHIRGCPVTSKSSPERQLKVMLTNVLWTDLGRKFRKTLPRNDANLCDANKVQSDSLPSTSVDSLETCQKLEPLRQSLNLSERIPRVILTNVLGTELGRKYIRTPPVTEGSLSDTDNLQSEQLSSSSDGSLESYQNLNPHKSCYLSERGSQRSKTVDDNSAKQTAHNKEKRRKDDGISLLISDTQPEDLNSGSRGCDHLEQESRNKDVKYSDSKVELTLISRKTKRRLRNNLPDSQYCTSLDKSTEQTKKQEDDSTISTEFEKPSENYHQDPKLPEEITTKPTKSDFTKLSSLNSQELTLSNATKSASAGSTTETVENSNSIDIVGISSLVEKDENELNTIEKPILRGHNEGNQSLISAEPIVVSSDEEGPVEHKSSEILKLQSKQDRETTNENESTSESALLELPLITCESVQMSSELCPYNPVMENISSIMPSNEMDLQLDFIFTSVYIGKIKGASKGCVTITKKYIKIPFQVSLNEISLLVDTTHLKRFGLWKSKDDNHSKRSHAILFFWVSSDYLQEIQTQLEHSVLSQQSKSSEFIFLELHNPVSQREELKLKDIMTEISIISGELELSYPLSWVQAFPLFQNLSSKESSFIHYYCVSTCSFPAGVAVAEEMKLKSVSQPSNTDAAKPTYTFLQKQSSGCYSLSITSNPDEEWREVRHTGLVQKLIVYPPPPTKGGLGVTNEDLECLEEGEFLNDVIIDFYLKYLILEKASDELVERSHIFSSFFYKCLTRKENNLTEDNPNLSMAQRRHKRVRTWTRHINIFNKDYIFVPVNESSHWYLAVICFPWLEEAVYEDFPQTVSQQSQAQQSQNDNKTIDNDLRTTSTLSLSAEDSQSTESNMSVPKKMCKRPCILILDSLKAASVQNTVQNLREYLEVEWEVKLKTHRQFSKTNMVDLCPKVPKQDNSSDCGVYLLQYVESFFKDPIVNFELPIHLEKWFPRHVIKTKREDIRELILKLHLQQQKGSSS
The format is functional.

Test [8] concerns the target T3, Sentrin-specific protease 6 (Homo sapiens, UniProt Q9GZR1).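 Also: Luminescence-based dose-response confirmatory assay of SENP6 inhibition, following up an ultra-high-throughput screen.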
T3 sequence (Q9GZR1 whole entry): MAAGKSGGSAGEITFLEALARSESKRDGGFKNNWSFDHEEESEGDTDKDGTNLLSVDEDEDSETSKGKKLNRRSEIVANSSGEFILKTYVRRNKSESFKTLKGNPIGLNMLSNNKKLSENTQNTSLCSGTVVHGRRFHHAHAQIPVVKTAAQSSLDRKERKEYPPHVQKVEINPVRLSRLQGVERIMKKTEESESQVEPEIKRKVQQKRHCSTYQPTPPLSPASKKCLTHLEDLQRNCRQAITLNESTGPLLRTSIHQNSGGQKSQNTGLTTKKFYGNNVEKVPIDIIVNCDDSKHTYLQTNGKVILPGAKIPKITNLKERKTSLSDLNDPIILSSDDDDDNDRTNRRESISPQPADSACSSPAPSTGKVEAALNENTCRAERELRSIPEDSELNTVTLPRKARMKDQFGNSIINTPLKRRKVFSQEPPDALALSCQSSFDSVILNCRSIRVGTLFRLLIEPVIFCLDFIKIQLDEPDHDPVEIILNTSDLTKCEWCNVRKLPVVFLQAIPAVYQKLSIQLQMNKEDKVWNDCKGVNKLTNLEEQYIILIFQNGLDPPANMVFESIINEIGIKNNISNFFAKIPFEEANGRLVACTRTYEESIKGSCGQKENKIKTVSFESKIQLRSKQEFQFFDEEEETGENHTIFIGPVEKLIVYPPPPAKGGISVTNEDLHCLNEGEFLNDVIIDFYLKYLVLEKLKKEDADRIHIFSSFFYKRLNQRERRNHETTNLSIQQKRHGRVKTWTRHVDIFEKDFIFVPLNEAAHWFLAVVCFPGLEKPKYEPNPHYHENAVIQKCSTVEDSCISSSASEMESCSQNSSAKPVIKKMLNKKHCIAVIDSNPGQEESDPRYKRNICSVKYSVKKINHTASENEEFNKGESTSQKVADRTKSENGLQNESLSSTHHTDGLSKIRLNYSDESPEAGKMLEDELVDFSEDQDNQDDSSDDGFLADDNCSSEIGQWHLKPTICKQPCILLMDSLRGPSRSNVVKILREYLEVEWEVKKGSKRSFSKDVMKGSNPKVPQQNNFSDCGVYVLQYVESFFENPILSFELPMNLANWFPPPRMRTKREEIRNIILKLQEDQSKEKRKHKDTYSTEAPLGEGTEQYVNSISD
The test is classed as functional.

Test [9] has as its target T4, Sentrin-specific protease 8 (Homo sapiens, UniProt Q96LD8).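 Also: luminescence read-out of SENP8 inhibition, dose-response confirmation following an ultra-high-throughput screen.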
T4 sequence (Q96LD8 whole entry): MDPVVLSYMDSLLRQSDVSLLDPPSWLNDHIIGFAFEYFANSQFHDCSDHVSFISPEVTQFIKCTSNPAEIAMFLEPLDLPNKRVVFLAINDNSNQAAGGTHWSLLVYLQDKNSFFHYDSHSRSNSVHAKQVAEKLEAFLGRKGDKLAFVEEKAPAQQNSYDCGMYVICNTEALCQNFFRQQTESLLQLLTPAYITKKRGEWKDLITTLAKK
The test is classed as functional.

The subject of test [10] is P388/ADR. Kind of test: cells. The format is functional. To be noted: Mus musculus.
Test [11] deals with SN12K1. The test is described as follows: cells. The test is classed as functional. To be noted: Homo sapiens.
Test [12] concerns P388. Kind of test: cells. The format is functional. The following applies: Mus musculus.
The target of test [13] is T5, Leucine aminopeptidase (Plasmodium falciparum 3D7, UniProt Q8IL11).
T5 sequence (Q8IL11 whole entry): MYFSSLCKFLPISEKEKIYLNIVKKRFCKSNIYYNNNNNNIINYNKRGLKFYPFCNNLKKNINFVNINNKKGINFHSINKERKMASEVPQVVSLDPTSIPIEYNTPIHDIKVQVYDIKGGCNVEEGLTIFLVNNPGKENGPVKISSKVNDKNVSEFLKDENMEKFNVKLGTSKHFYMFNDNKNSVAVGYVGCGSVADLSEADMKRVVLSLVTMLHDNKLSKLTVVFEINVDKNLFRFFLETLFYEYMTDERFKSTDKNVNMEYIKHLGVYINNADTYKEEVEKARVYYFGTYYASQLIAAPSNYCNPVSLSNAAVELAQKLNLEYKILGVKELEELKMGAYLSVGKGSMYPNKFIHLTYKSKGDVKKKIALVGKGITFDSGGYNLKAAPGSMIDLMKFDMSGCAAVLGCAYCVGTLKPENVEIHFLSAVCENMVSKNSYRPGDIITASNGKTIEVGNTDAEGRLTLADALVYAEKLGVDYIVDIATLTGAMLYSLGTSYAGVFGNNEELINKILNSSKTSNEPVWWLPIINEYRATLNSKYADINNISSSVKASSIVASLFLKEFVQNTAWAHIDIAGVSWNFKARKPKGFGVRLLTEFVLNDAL
Kind of test: P. falciparum M17LAP inhibitors, primary screen, biochemical, fluorogenic H-Leu-NHMec substrate, 1536-well (AID 1619). The format is functional.

Test [14] concerns the target Large T antigen (Simian virus 40, UniProt P03070). The test is classed as functional, Betapolyomavirus macacae.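 Also: Confirmatory-stage PubChem screen for compounds that inhibit SV40 T antigen.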

Structures are written as SMILES. Calls of active or inactive are those of the source.

Sequence of Beta-galactosidase (Q8VNN2 whole entry, the tested form may be a part): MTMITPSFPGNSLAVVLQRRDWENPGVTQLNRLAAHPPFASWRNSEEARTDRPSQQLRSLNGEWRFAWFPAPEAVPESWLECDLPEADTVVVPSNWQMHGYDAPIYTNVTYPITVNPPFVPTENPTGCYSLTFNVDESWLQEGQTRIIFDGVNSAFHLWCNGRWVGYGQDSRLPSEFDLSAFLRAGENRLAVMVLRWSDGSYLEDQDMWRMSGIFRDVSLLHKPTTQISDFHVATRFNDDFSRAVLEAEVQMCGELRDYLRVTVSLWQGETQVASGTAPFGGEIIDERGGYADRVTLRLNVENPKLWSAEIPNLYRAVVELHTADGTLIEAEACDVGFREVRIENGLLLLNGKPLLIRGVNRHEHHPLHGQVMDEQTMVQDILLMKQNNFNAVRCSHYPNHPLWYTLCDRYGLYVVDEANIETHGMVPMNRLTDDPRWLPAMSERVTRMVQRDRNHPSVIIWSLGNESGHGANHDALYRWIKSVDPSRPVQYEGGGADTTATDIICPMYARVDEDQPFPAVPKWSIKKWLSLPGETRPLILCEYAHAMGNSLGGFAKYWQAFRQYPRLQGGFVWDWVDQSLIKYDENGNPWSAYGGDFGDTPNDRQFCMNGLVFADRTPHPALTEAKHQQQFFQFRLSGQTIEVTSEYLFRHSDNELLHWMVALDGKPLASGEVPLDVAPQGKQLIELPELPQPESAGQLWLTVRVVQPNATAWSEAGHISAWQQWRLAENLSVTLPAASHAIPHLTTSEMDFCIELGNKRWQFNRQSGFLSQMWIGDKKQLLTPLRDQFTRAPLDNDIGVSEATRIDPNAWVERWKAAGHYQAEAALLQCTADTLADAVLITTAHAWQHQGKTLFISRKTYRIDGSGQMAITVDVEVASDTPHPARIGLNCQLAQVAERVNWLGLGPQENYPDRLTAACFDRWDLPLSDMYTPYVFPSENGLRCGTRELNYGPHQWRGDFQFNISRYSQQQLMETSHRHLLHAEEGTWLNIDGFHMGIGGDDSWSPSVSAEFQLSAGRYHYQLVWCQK
Sequence of Large T antigen (P03070 whole entry): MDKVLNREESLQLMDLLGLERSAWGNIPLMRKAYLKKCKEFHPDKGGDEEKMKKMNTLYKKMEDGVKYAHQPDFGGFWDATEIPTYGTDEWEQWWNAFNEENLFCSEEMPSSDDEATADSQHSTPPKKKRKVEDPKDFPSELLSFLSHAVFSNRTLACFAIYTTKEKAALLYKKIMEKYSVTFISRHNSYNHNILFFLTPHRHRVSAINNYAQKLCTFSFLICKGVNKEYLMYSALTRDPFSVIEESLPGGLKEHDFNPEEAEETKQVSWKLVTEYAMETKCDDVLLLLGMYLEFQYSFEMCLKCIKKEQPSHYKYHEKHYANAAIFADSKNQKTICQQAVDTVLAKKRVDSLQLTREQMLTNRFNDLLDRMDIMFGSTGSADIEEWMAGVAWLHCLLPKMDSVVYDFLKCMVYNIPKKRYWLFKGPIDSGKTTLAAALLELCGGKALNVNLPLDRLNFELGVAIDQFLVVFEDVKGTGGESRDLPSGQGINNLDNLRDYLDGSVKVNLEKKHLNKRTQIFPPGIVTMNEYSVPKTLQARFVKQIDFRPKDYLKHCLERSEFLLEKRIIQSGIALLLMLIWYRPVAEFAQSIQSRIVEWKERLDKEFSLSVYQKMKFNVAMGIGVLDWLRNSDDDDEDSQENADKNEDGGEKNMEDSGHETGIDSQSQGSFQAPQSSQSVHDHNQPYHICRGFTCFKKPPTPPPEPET

`CCOc1ccc(NC(S)=Nc2ccc(C)c([N+](=O)[O-])c2)cc1`: the IC50 (commonly the concentration at which inhibition is half-maximal) in [1] was 131 µM (inactive).

For the molecule `CN1CCN(C(=O)/C=C/c2ccc(Cl)c(Cl)c2)CC1`, the IC50 in [1] is > 80 µM (inactive).

On to `COc1ccc2c3c([nH]c2c1)[C@@H](CO)N(C(=O)Nc1cccc(F)c1)CC31CCN(S(=O)(=O)c2ccccc2)CC1`, for which the values for the half-maximal activity concentration (AC50) in test [2] and in test [3] were 23.2 µM (active) and 21 µM (active), respectively.

For the molecule `CNC[C@@H]1Oc2cc(C#Cc3cccc(OC)c3)ccc2S(=O)(=O)N([C@@H](C)CO)C[C@@H]1C`, the AC50 (as a rule, the concentration giving half of the maximal activity seen) is 9.73 µM (active) in [4] and 14.9 µM (active) in test [5].

Consider `CC(=O)Nc1ccc(C(=O)COC(=O)C2CCCCC2)c(F)c1`, for which the IC50 is 17.5 µM (active) in test [6], 6.32 µM (active) in [7], 20.4 µM (active) in test [8] and 65.6 µM (active) in test [9].

Regarding `CCOC(=O)/C(O)=C1\C(=O)N(C)C(=O)C1c1ccc(OC)c(OC)c1` (stereo unspecified), the GI50 (usually the concentration at which growth is held to half of that of the control) in test [10] was > 31.6 µM (inactive); in test [11], > 100 µM (inactive); in [12], > 100 µM (inactive).

With `CCC1(O)CC(OC2CC(N(C)C)C(OC3CC4OC5CC(=O)C(C)OC5OC4C(C)O3)C(C)O2)c2c(cc3c(c2O)C(=O)c2c(O)ccc(O)c2C3=O)C1C(=O)OC` (stereo unspecified), the GI50 was 0.000703 µM (active) in [10], 0.00741 µM (active) in [11] and 0.000368 µM (active) in test [12].

As to `Nc1ccc(/C=C/c2ccc3ncccc3c2)cc1`, the IC50 in test [6] is 22.8 µM (active); in test [7], 10.4 µM (active); in [8] it was 9.32 µM (active); in [9], > 100 µM (inactive).

`CC1=C(C(=O)Nc2ccc(Cl)c(C(=O)OC(C)C)c2)SCCO1`: the GI50 was 29.2 µM (inactive) in test [10], 58.6 µM (inactive) in [11] and 23.2 µM (inactive) in test [12].

On to `CCN(CC)c1ccc(NC(=O)COC(=O)c2cccs2)cc1`, for which the IC50 is 15.7 µM (active) in test [13]; 15.2 µM (active) in test [14]; 16.2 µM (active) in test [6]; 11.7 µM (active) in [7]; 98.2 µM (active) in test [8]; > 100 µM (inactive) in [9].

With `CN(C)C(CN)CC1=C(CC(CN)N(C)C)CCC1` (stereo unspecified), the GI50 in test [10], in [11] and in [12] was > 100 µM (inactive) in each case.

For `COc1cc2c(cc1OC)C(Cc1c3ccccc3cc3ccccc13)N(C)CC2` (stereo unspecified), the GI50 is 15.8 µM (inactive) in test [10], 15.5 µM (inactive) in test [11] and 18.7 µM (inactive) in test [12].

With `Cc1[nH]c2ccc(C(=O)N3CCN(c4ccc(F)cc4)CC3)cc2c1C`, the IC50 in test [1] is > 80 µM (inactive).

`C[C@H](CO)N1C[C@H](C)[C@H](CN(C)S(=O)(=O)c2cccc(F)c2)Oc2ncc(C#CC3CCCCC3)cc2C1=O`: the AC50 is 6.43 µM (active) in test [4] and 32.3 µM (active) in test [5].

With `C[C@@H]1CCCCO[C@@H](CN(C)CC2CCCCC2)[C@H](C)CN([C@@H](C)CO)C(=O)c2cc(NC(=O)Nc3cccc4ccccc34)ccc2O1`, the AC50 in test [4] was 5.03 µM (active); in test [5], 47.3 µM (active).

Regarding `Cc1cc(C)n(-c2ccc(C(=O)N3CCN(S(=O)(=O)c4ccc(Br)cc4Cl)CC3)cc2)n1`, in [1], the IC50 was > 80 µM (inactive).
